Test results taken from US7189518B2, “Soluble CD40L(CD154) as a prognostic marker of atherosclerotic diseases” (The Brigham and Women's Hospital, Inc., priority 2001, dated 2007).

Assays:
Assay type in all cases: cell-based
human vascular EC and MØ = test: RT-PCR of CD40 and CD40L mRNA expression in cultured human vascular cells
Description: (§1) Human vascular EC and SMC were isolated from saphenous veins and cultured as described previously.^4,26 Mononuclear phagocytes (MØ) were isolated from leukocyte concentrates by density gradient centrifugation employing Lymphocyte Separation Medium (Organon-Teknika, Durham, N.C.) and were cultured (10 days) in RPMI 1640 (BioWhittaker, Walkersville, Md.) containing 2% human serum (Sigma; St. Louis, Mo.).^26 All cell types were cultured 24 h before and during the experiment in media lacking serum. Viability of the cultures was determined by trypan blue (Sigma, St. Louis, Mo.) exclusion count as well as an oligonucleosome formation assay (Cell Death Detection ELISA, Boehringer Mannheim, Germany).
Total RNA isolated from cultured EC, SMC, or MØ employing RNAzol (Tel-Test; Friendswood, Tex.) was assessed for purity and yield spectrophotometrically (2100 Bioanalyzer, Agilent Technologies, Wilmington, Del.) and was reverse-transcribed (2 μg total RNA; 50 min, 42° C.) employing Superscript II Reverse Transcriptase (LifeTechnologies, Carlsbad, Calif.). PCR was performed for 35 cycles at 95° C. (120 sec), 62° C. (120 sec), and 72° C. […] PCR products were analyzed on ethidium bromide-containing 1.3% agarose gels and visualized by UV transillumination. […]

[1] = test system: human vascular EC, SMC, and MØ; test: Western blot of CD40 and CD40L protein expression in cultured human vascular cells; conditions: for Concentration required to reduce CD40/CD40L expression: higher than for cerivastatin
Description: Viability of the cultures was determined by trypan blue (Sigma, St. Louis, Mo.) exclusion count as well as an oligonucleosome formation assay (Cell Death Detection ELISA, Boehringer Mannheim, Germany).
Culture lysates (50 μg total protein/lane) and supernatants were separated by SDS-PAGE and blotted to polyvinylidene difluoride membranes (Bio-Rad, Hercules, Calif.) using a semi-dry blotting apparatus (3 mA/cm^2, 30 min; Bio-Rad, Hercules, Calif.). Blots were blocked and primary (mouse-anti-human CD40 or CD40L; both 1:1,000; PharMingen, San Diego, Calif.) antibodies were added in 5% defatted dry milk/PBS/0.1% Tween 20. After 1 h, blots were washed three times (PBS/0.1% Tween 20) and secondary, peroxidase-conjugated, goat-anti-mouse antibody (Jackson Immunoresearch, West Grove, Pa.) was added (1 h). Finally, blots were washed and immunoreactive proteins were visualized using the Western blot chemiluminescence system (NEN™, Boston, Mass.). Data were verified by employing anti-CD40/-CD40L antibodies from Santa Cruz (Santa Cruz, Calif.).

[2] = test system: human vascular EC, as well as MØ; test: Flow cytometry of CD40 and CD40L cell surface expression
Description: as §1
Human vascular EC, SMC, or MØ were washed with ice-cold PBS, harvested by trypsinization, and fixed (PBS/4% paraformaldehyde, 15 min). Subsequently, the cells were washed once with PBS/2% BSA before being incubated (1 h, 4° C.) with either buffer alone or FITC-conjugated control IgG, mouse-anti-human CD40, or mouse-anti-human CD40L antibody (1 μg/ml; PharMingen, San Diego, Calif.). Finally, cells were washed with PBS/2% BSA and analyzed in a Becton Dickinson FACSCAN® flow cytometer employing […]® software (Becton Dickinson; San Jose, Calif.). At least 20,000 viable cells per condition were analyzed.

For `CC(O)(CCO)CC(=O)O` (centres unmarked) [Mevalonate], which “Effect on the expression of CD40 and CD40L transcripts diminished by statins” value (human vascular EC and MØ) is on record?
Its value is “reversed”.

And the “Effect on the expression of CD40 and CD40L diminished by statins” value ([1]; protein, Western blot)?
The value was “reversed”.

How did the “Concentration required to reduce CD40/CD40L expression” value ([1]; Western blot) turn out when `CC(C)c1c(C(=O)Nc2ccccc2)c(-c2ccccc2)c(-c2ccc(F)cc2)n1CC[C@@H](O)C[C@@H](O)CC(=O)O` [atorvastatin] was run?
The value was 100 nM.

And the “Constitutive as well as cytokine-induced expression of CD40 and CD40L protein and transcript” value ([1]; human vascular EC, SMC, and MØ, summary in the discussion, also covers RT-PCR)?
The value was “significantly diminished”.

What about the “Order of the statins by concentration needed for equal reduction in CD40/CD40L expression” value [2] of the same molecule?
The value was “cerivastatin>simvastatin=atorvastatin”.

`COCc1c(C(C)C)nc(C(C)C)c(/C=C/[C@@H](O)C[C@@H](O)CC(=O)O)c1-c1ccc(F)cc1` [cerivastatin] was tested. Which “Concentration at which the constitutive as well as IL-1β/TNFα/IFNγ-induced expression of the receptor (CD40) was diminished” value ([1]; EC, Western blot) did it give?
Its value is over 2 nM.

And the “Concentration for maximal inhibition of CD40 expression” value ([1]; EC, Western blot)?
The value was 10 to 50 nM.

`CCC(C)(C)C(=O)O[C@H]1C[C@@H](C)C=C2C=C[C@H](C)[C@H](CC[C@@H]3C[C@@H](O)CC(=O)O3)[C@H]21` [simvastatin] was tested. Which “Concentration required to reduce CD40/CD40L expression” value ([1]; Western blot) did it give?
Its value is 100 nM.
